The subject of data set [1] is Glomerella lagenarium (Colletotrichum lagenarium). The data set can be described thus: Glomerella lagenarium (Colletotrichum lagenarium) liquid culture / cucumber / preventative (anthracnose). Particulars: Colletotrichum orbiculare; 20 ppm in the applied formulation; conidia in PDB nutrient broth, 24° C.; 3 to 4 days after application; compared to untreated; read-out: disease control (inhibition of growth measured photometrically). Type of data set: cell-based. In short, it runs like this:
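Test compound, diluted from DMSO, was mixed in microtiter wells with fungal conidia taken from cryogenic storage and suspended in PDB nutrient broth. After 3 to 4 days at 24 °C, photometric growth measurement gave antifungal activity as a percentage of the untreated control.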

The test system of data set [2] is Puccinia recondita f. sp. Tritici. The data set can be described thus: Puccinia recondita f. sp. tritici / wheat / leaf disc preventative (brown rust). Type of data set: in vivo. Particulars: foliar, 200 ppm in the applied formulation, wheat leaf segments cv. Kanzler, inoculated 1 day after application, compared to untreated, assessed 7 to 9 days after application, read-out: disease control. The method, boiled down:
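Preventative leaf-segment test, cv. Kanzler on agar: spray compound, inoculate with spore suspension 1 d post-application, hold at 19° C./75% rh, 12 h/12 h light cycle. Read-out = % disease control vs untreated check at 7–9 d; 200 ppm in applied formulation.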

Data set [3] has the same test system. Nature of the data set: Puccinia recondita f. sp. tritici / wheat / leaf disc curative (brown rust). Type of data set: in vivo. The settings on record: foliar, 200 ppm in the applied formulation, wheat leaf segments cv. Kanzler, applied 1 day after inoculation, compared to untreated, assessed 6 to 8 days after application, read-out: disease control. The method, boiled down: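 Compound applied 1 day after spore inoculation of wheat cv. Kanzler leaf segments on agar (dark, 19 °C, 75% RH before treatment). After further incubation under 12 h light/12 h dark at 19 °C and 75% RH, disease control relative to untreated segments rated 6–8 days post-application.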

Data set [4] relates to Phakopsora pachyrhizi. The data set can be described thus: Phakopsora pachyrhizi / soybean / leaf disc preventative (Asian soybean rust). Format: in vivo. Particulars: foliar, 200 ppm in the applied formulation, soybean leaf disks, inoculated one day after application, compared to untreated, assessed 12 to 14 days after application, read-out: disease control. The procedure:
Leaf disks or leaf segments of various plant species are cut from plants grown in a greenhouse. The cut leaf disks or segments are placed in multiwell plates (24-well format) onto water agar. The leaf disks are sprayed with a test solution before (preventative) or after (curative) inoculation. Compounds to be tested are prepared as DMSO solutions (max. 10 mg/ml) which are diluted to the appropriate concentration with 0.025% Tween20 just before spraying. The inoculated leaf disks or segments are incubated under defined conditions (temperature, relative humidity, light, etc.) according to the respective test system. A single evaluation of disease level is carried out 3 to 14 days after inoculation, depending on the pathosystem. Percent disease control relative to the untreated check leaf disks or segments is then calculated.
Soybean leaf disks are placed on water agar in multiwell plates (24-well format) and sprayed with the formulated test compound diluted in water. One day after application leaf discs are inoculated by spraying a spore suspension on the lower leaf surface. After an incubation period in a climate cabinet of 24-36 hours in darkness at 20° C. and 75% rh leaf disc are kept at 20° C. with 12 h light/day and 75% rh. The activity of a compound is assessed as percent disease control compared to untreated when an appropriate level of disease damage appears in untreated check leaf disks (12 to 14 days after application).
The following compounds at 200 ppm in the applied formulation give at least 80% disease control in this test when compared to untreated control leaf disks under the same conditions, which show extensive disease development.

The structures appear in SMILES notation.

What is called inhibition is the share of the control response that was lost under treatment. For orientation: melting point means the temperature, or range, at which the solid turns liquid.

Molecule `CCS(=O)(=O)N(Cc1ccc(-c2noc(C(F)(F)F)n2)cc1)C1CC1` [Compound 1.1, N-cyclopropyl-N-[[4-[5-(trifluoromethyl)-1,2,4-oxadiazol-3-yl]phenyl]methyl] ethanesulfonamide] showed a melting point of 86 to 88 °C. Moreover, in data set [1], the inhibition at 20 ppm is not below 80%. The pest or weed control at 200 ppm in data set [2] is not below 80%. For the same molecule, the pest or weed control at 200 ppm in data set [3] is not below 80%. Besides, in data set [4], the pest or weed control at 200 ppm was not below 80%.
Molecule `CCS(=O)(=O)N(Cc1ccc(-c2noc(C(F)(F)F)n2)cc1)OC` [Compound 1.3, N-methoxy-N-[[4-[5-(trifluoromethyl)-1,2,4-oxadiazol-3-yl]phenyl]methyl] ethanesulfonamide] registered a melting point of 44 to 46 °C. The inhibition at 20 ppm in data set [1] is not below 80%. Besides, the pest or weed control at 200 ppm in data set [2] was not below 80%. The pest or weed control at 200 ppm in data set [3] is not below 80%. Besides, in data set [4], the pest or weed control at 200 ppm is not below 80%.
Molecule `CS(=O)(=O)N(Cc1ccc(-c2noc(C(F)(F)F)n2)cc1)C1CC1` [Compound 1.8, N-cyclopropyl-N-[[4-[5-(trifluoromethyl)-1,2,4-oxadiazol-3-yl]phenyl]methyl] methanesulfonamide] had a melting point of 84 to 86 °C. Besides, the inhibition at 20 ppm in data set [1] was not below 80%. The pest or weed control at 200 ppm in data set [2] was not below 80%. For the same molecule, the pest or weed control at 200 ppm in data set [3] was not below 80%. The pest or weed control at 200 ppm in data set [4] is not below 80%.
`CN(Cc1ccc(-c2noc(C(F)(F)F)n2)cc1)S(=O)(=O)C1CC1` [Compound 1.10, N-methyl-N-[[4-[5-(trifluoromethyl)-1,2,4-oxadiazol-3-yl]phenyl]methyl] cyclopropanesulfonamide] registered a melting point of 102 to 105 °C. In addition, the inhibition at 20 ppm in data set [1] was not below 80%. For the same molecule, the pest or weed control at 200 ppm in data set [2] was not below 80%. Moreover, the pest or weed control at 200 ppm in data set [3] is not below 80%. Also, the pest or weed control at 200 ppm in data set [4] was not below 80%.
With `CN(Cc1ccc(-c2noc(C(F)(F)F)n2)cc1)S(C)(=O)=O` [Compound 1.11, N-methyl-N-[[4-[5-(trifluoromethyl)-1,2,4-oxadiazol-3-yl]phenyl]methyl] methanesulfonamide], the melting point fell in the range of 103 to 105 °C. Moreover, in data set [1], the inhibition at 20 ppm is not below 80%. Besides, the pest or weed control at 200 ppm in data set [2] is not below 80%. In addition, in data set [3], the pest or weed control at 200 ppm is not below 80%. For the same molecule, the pest or weed control at 200 ppm in data set [4] was not below 80%.
Regarding `CN(C)S(=O)(=O)N(C)Cc1ccc(-c2noc(C(F)(F)F)n2)cc1` [Compound 1.12, N-(dimethylsulfamoyl)-N-methyl-1-[4-[5-(trifluoromethyl)-1,2,4-oxadiazol-3-yl]phenyl] methanamine], the melting point is 77 to 79 °C. Moreover, the inhibition at 20 ppm in data set [1] was not below 80%. The pest or weed control at 200 ppm in data set [2] was not below 80%. In addition, the pest or weed control at 200 ppm in data set [3] is not below 80%. Moreover, in data set [4], the pest or weed control at 200 ppm is not below 80%.
`CCS(=O)(=O)N(C)Cc1ccc(-c2noc(C(F)(F)F)n2)cc1` [Compound 1.13, N-methyl-N-[[4-[5-(trifluoromethyl)-1,2,4-oxadiazol-3-yl]phenyl]methyl] ethanesulfonamide] showed a melting point of 85 to 88 °C. Further, the inhibition at 20 ppm in data set [1] was not below 80%. In addition, in data set [2], the pest or weed control at 200 ppm was not below 80%. Further, the pest or weed control at 200 ppm in data set [3] is not below 80%. In addition, the pest or weed control at 200 ppm in data set [4] was not below 80%.
`CN(Cc1ccc(-c2noc(C(F)(F)F)n2)cc1)S(=O)(=O)N1CCOCC1` [Compound 1.15, N-methyl-N-[[4-[5-(trifluoromethyl)-1,2,4-oxadiazol-3-yl]phenyl]methyl] morpholine-4-sulfonamide] registered a melting point of 118 to 120 °C. Further, the inhibition at 20 ppm in data set [1] was not below 80%. Moreover, in data set [2], the pest or weed control at 200 ppm is not below 80%. Besides, the pest or weed control at 200 ppm in data set [3] is not below 80%. Moreover, the pest or weed control at 200 ppm in data set [4] is not below 80%.
`CCNS(=O)(=O)N(C)Cc1ccc(-c2noc(C(F)(F)F)n2)cc1` [Compound 1.16, 3-[4-[[ethylsulfamoyl (methyl)amino]methyl]phenyl]-5-(trifluoromethyl)-1,2,4-oxadiazole] had a melting point of 63 to 66 °C. Besides, in data set [1], the inhibition at 20 ppm is not below 80%. Also, the pest or weed control at 200 ppm in data set [2] was not below 80%. For the same molecule, the pest or weed control at 200 ppm in data set [3] is not below 80%. Also, the pest or weed control at 200 ppm in data set [4] was not below 80%.
Consider `CCNS(=O)(=O)N(Cc1ccc(-c2noc(C(F)(F)F)n2)cc1)C1CC1` [Compound 1.17, 3-[4-[[cyclopropyl (ethylsulfamoyl)amino]methyl]phenyl]-5-(trifluoromethyl)-1,2,4-oxadiazole], for which the melting point was in the range of 108 to 110 °C. Also, the inhibition at 20 ppm in data set [1] is not below 80%. The pest or weed control at 200 ppm in data set [2] is not below 80%. Moreover, the pest or weed control at 200 ppm in data set [3] was not below 80%. For the same molecule, the pest or weed control at 200 ppm in data set [4] was not below 80%.
Consider `CCN(Cc1ccc(-c2noc(C(F)(F)F)n2)cc1F)S(C)(=O)=O` [Compound 1.103, N-ethyl-N-[[2-fluoro-4-[5-(trifluoromethyl)-1,2,4-oxadiazol-3-yl]phenyl]methyl] methanesulfonamide], for which the melting point lay in the range of 90 to 93 °C. Also, the inhibition at 20 ppm in data set [1] was not below 80%. Moreover, the pest or weed control at 200 ppm in data set [2] is not below 80%. Besides, the pest or weed control at 200 ppm in data set [3] was not below 80%. In addition, the pest or weed control at 200 ppm in data set [4] is not below 80%.
In the case of `CCN(Cc1ccc(-c2noc(C(F)(F)F)n2)c(F)c1F)S(C)(=O)=O` [Compound 1.104, N-[[2,3-difluoro-4-[5-(trifluoromethyl)-1,2,4-oxadiazol-3-yl]phenyl]methyl]-N-ethyl-methanesulfonamide], the melting point lay within 81 to 93 °C. Besides, the inhibition at 20 ppm in data set [1] is not below 80%. The pest or weed control at 200 ppm in data set [2] was not below 80%. For the same molecule, the pest or weed control at 200 ppm in data set [3] is not below 80%. Besides, in data set [4], the pest or weed control at 200 ppm is not below 80%.
`COCCS(=O)(=O)NCc1ccc(-c2noc(C(F)(F)F)n2)cc1` [Compound 2.1, 2-methoxy-N-[[4-[5-(trifluoromethyl)-1,2,4-oxadiazol-3-yl]phenyl]methyl] ethanesulfon-amide] showed a melting point of 97 to 100 °C. Further, the inhibition at 20 ppm in data set [1] is not below 80%. The pest or weed control at 200 ppm in data set [2] was not below 80%. The pest or weed control at 200 ppm in data set [3] is not below 80%. For the same molecule, the pest or weed control at 200 ppm in data set [4] is not below 80%.
On to `CCS(=O)(=O)NCc1ccc(-c2noc(C(F)(F)F)n2)cc1` [Compound 2.2, N-[[4-[5-(trifluoromethyl)-1,2,4-oxadiazol-3-yl]phenyl]methyl] ethanesulfon-amide], for which the melting point lay within 127 to 129 °C. Moreover, in data set [1], the inhibition at 20 ppm is not below 80%. For the same molecule, in data set [2], the pest or weed control at 200 ppm is not below 80%. The pest or weed control at 200 ppm in data set [3] is not below 80%. In addition, in data set [4], the pest or weed control at 200 ppm was not below 80%.
`CN(C)S(=O)(=O)NCc1ccc(-c2noc(C(F)(F)F)n2)cc1` [Compound 2.3, 3-[4-[(dimethyl-sulfamoylamino)methyl]phenyl]-5-(trifluoromethyl)-1,2,4-oxadiazole] showed a melting point of 105 to 107 °C. Moreover, in data set [1], the inhibition at 20 ppm is not below 80%. For the same molecule, the pest or weed control at 200 ppm in data set [2] is not below 80%. For the same molecule, the pest or weed control at 200 ppm in data set [3] is not below 80%. Further, in data set [4], the pest or weed control at 200 ppm is not below 80%.

Values taken from patent US20210101874A1, “MICROBIOCIDAL OXADIAZOLE DERIVATIVES” (SYNGENTA PARTICIPATIONS AG, priority 2017, published 2021).
